Here are results for nine molecules from patent US11578055B2, “Triazacyclododecansulfonamide (“TCD”)-based protein secretion inhibitors” (KEZAR LIFE SCIENCES, priority 2018, dated 2023).

In data set [1] the test system is PD1 signal sequence plus 10 amino acids fused to Gaussia Luciferase (PD1-ss+10aa/Gaussia Luciferase). Put plainly: Dox Induced PD1-ss-Gluc Assay. To be noted: 24 hr, 293FRT/TO; read-out: 24 hr Dox Inducible PD1ssGluc 293FRT/TO: Mean IC50. It counts as cell-based. The source says: FIp-In 293 T-REx™ cells were transfected with pcDNA™5/FRT/TO plasmid inserted with cDNA encoding Gaussia Luciferase fused to the 3′ end of cDNA encoding PD1 signal sequence plus 10 amino acids (N-[…]-C) (SEQ ID NO: 1). Transfected cells were selected for resistance to the selectable markers Hygromycin and Blasticidin to create a stable cell line that contained the PD1-ss+10aa/Gaussia Luciferase cDNA insert whose expression was regulated under the T-REx™ system. The day before assay, cells were trypsinized and plated in 384-well tissue culture plates. The next day, compound dilutions in DMSO/media containing doxycycline were added to the wells and incubated at 37° C., 5% CO2.
(§1) For chemical structures that include one or more stereoisomers, but are illustrated without indicating stereochemistry, the assay data refers to a mixture of stereoisomers.

In data set [2] the test system is full length TNFα (amino acids 1-233) fused to Gaussia Luciferase. The experiment in a line: Dox Induced TNFα-FL-Gluc Assay. It counts as cell-based. To be noted: 24 hr, 293FRT/TO; read-out: 24 hr Dox Inducible TNFaFLGluc 293FRT/TO: Mean IC50.
Text: FIp-In 293 T-REx™ cells were transfected with pcDNA™5/FRT/TO plasmid inserted with cDNA encoding Gaussia Luciferase fused to the 3′ end of cDNA encoding full length TNFα (amino acids 1-233). Transfected cells were selected for resistance to the selectable markers Hygromycin and Blasticidin to create a stable cell line that contained the TNFα-FL/Gaussia Luciferase cDNA insert whose expression was regulated under the T-REx™ system. The day before assay, cells were trypsinized and plated in 384-well tissue culture plates. The next day, compound dilutions in DMSO/media containing doxycycline were added to the wells and incubated at 37° C., 5% CO2.
as §1

In data set [3] the test system is multiple myeloma cell line NCl-H929. Put plainly: H929 Cell Viability Assay. It is filed as cell-based, human. To be noted: Homo sapiens, NCI-H929, 48 h, H929, read-out: 48 hr H929 Viability Celltiter-Glo: Mean EC50. How it is done:
The human multiple myeloma cell line NCl-H929 was cultured in Advanced RPMI 1640 media (Gibco®) supplemented with 6% fetal bovine serum, 2 mM Glutamine, and 1× Penicillin/Streptomycin. On the day of assay, cells were resuspended in RPMI 1640 media supplemented with 10% fetal bovine serum, 2 mM Glutamine, and 1× Penicillin/Streptmycin and plated in 384-well tissue culture plates and treated with compound dilutions in DMSO/media. Plates were incubated at 37° C., 5% CO2 for 48 hours. After 48 hours, Celltiter-Glo® (Promega) was added to each well and luciferase signal was quantified using Tecan Infinite M1000 Pro for cell viability determination.
as §1
A general note: Cellular ATP, detected with luciferase, serves as a proxy for viable cell number.

Data set [4] has as its system multiple myeloma cell line U266B1. Put plainly: U266 Cell Viability Assay. It counts as cell-based, human. To be noted: Homo sapiens, U-266; 48 hr, U266; read-out: 48 hr U266 Viability Celltiter-Glo: Mean EC50. How it is done:
The human multiple myeloma cell line U266B1 was cultured in RPMI 1640 media supplemented with 10% fetal bovine serum, 2 mM Glutamine, and 1× Penicillin/Streptomycin. Cells were plated in 384-well tissue culture plates and treated with compound dilutions in DMSO/media. Plates were incubated at 37° C., 5% CO2 for 48 hours. After 48 hours, Celltiter-Glo® (Promega) was added to each well and luciferase signal was quantified using Tecan Infinite M1000 Pro for cell viability determination.
For chemical structures that include one or more stereoisomers, but are illustrated without indicating stereochemistry, the assay data refers to a mixture of stereoisomers

Data set [5] in a line: In Vitro Microsome Stability Assay (human). It is filed as in vitro ADME. The note with it: human, 30 min, NADPH. The method, then:
(§2) Potassium phosphate (423 μL of a 0.1 M solution) was added to 8-strip deep well tubes followed by human, mouse, rat, or monkey microsomes (25 μL of a 20 mg/mL solution). The tubes were then placed on ice and the test article (2 μL of a 0.25 mM solution in DMSO) was added. The mixture was preincubated at 37° C. for 3 to 5 minutes (shaking at 150 rpm) then the reaction was initiated by adding 50 μL NADPH. An aliquot of samples (100 μL) were collected at 0 and 30 min and 200 μL of an acetonitrile mixture containing IS (compound 914) was added to quench the reaction. After centrifuging for 10 min at 4000 rpm, a mixed solution of the 20 μL of the supernatant (20 μL) plus 100 μL ACN/H2O (1:1) were injected for LC-MS/MS analysis. Liver microsome stability is assessed by the % remaining of compound at 30 min which is calculated using the following equation: [(AUCanalyteT=30/AUCIS)/(AUCanalyteT=0/AUCIS)]*100
as §1

Data set [6] can be described thus: In Vitro Microsome Stability Assay (mouse). It counts as in vitro ADME. The note with it: mouse, 30 min, NADPH. How it is done: as §2, §1
Data set [7] can be described thus: In Vitro Microsome Stability Assay (rat). It is filed as in vitro ADME. To be noted: rat, 30 min, NADPH. The method, then:
as §2, §1

Data set [8] can be described thus: In Vitro Microsome Stability Assay (monkey). It counts as in vitro ADME. To be noted: monkey, 30 min, NADPH. The method, then: as §2, §1

The EC50 is the concentration that produces a half-maximal response. In the case of `CN(C)c1ccc(S(=O)(=O)N2CCCN(CC3CCCCC3)CCCN(S(=O)(=O)N3CCC(C)(C)CC3)CC3(CC3)C2)cc1` [A26, 4-{[9-(cyclohexylmethyl)-13-[(4,4-dimethylpiperidin-1-yl)sulfonyl]-5,9,13-thazaspiro[2.11]tetradecan-5-yl]sulfonyl}-N,N-dimethylaniline], the IC50 in data set [1] was 0.224 µM; in data set [2], over 25 µM. The EC50 in data set [3] is 16.1 µM; in data set [4], over 25 µM. In addition, the “Liver Microsome Stability-% Left after 30 min w/ NADPH (%) Human” value (“Liver Microsome Stability-% Left … (%) Human” below) in data set [5] is 6.65%. For the same molecule, the “Liver Microsome Stability-% Left after 30 min w/ NADPH (%) Mouse” value (from here on “Liver Microsome Stability-% Left … (%) Mouse”) in data set [6] amounted to 3.4%. Besides, the “Liver Microsome Stability-% Left after 30 min w/ NADPH (%) Rat” value (shortened to “Liver Microsome Stability-% Left … (%) Rat”) in data set [7] was found to be 1.84%. Also, the “Liver Microsome Stability-% Left after 30 min w/ NADPH (%) Monkey” value (from here on “Liver Microsome Stability-% Left … (%) Monkey”) in data set [8] is recorded as 0.13%.

For the molecule `COC1CCN(S(=O)(=O)N2CCCN(CC3CCCCC3)CCCN(S(=O)(=O)c3ccc(N(C)C)cc3)CC3(CC3)C2)CC1` [A27, 4-{[9-(cyclohexylmethyl)-13-[(4-methoxypiperidin-1-yl)sulfonyl]-5,9,13-triazaspiro[2.11]tetradecan-5-yl]sulfonyl}-N,N-dimethylaniline], the IC50 in data set [1] is 0.493 µM; in data set [2], over 25 µM. In addition, the EC50 in data set [3] and in data set [4] was over 25 µM in each case. In addition, the “Liver Microsome Stability-% Left … (%) Human” value in data set [5] was 2.52%. For the same molecule, the “Liver Microsome Stability-% Left … (%) Mouse” value in data set [6] worked out at 2.15%. For the same molecule, the “Liver Microsome Stability-% Left … (%) Rat” value in data set [7] is reported as 0.98%. In data set [8], the “Liver Microsome Stability-% Left … (%) Monkey” value was determined as 2.07%.

Regarding `Cc1cc(N(C)C)ccc1S(=O)(=O)N1CCCN(CC2CCCCC2)CCCN(S(=O)(=O)N2CCCCC2)CC2(CC2)C1` [A30, 4-{[9-(cyclohexylmethyl)-13-(piperidine-1-sulfonyl)-5,9,13-triazaspiro[2.11]tetradecan-5-yl]sulfonyl}-N,N,3-trimethylaniline], the IC50 in data set [1] is 0.793 µM; in data set [2], over 25 µM. For the same molecule, the concentration for a half-maximal effect (EC50) in data set [3] and in data set [4] was over 25 µM each time. Also, the “Liver Microsome Stability-% Left … (%) Human” value in data set [5] came out at 0.12%. Also, the “Liver Microsome Stability-% Left … (%) Mouse” value in data set [6] amounted to 0.35%. In addition, the “Liver Microsome Stability-% Left … (%) Rat” value in data set [7] was 0.28%. Further, the “Liver Microsome Stability-% Left … (%) Monkey” value in data set [8] is 0.03%.

In the case of `COc1ccc(S(=O)(=O)N2CCCN(CC3CCCCC3)CCCN(S(=O)(=O)N3CCCCC3)CC3(CC3)C2)cc1` [A31, 9-(cyclohexylmethyl)-5-(4-methoxybenzenesulfonyl)-13-(piperidine-1-sulfonyl)-5,9,13-triazaspiro[2.11]tetradecane], the values for the IC50 in data set [1] and in data set [2] were 0.619 µM and over 25 µM, respectively. The EC50 in data set [3] and in data set [4] was over 25 µM each time. Further, the “Liver Microsome Stability-% Left … (%) Human” value in data set [5] was found to be 0.05%. Also, in data set [6], the “Liver Microsome Stability-% Left … (%) Mouse” value is 0.25%. The “Liver Microsome Stability-% Left … (%) Rat” value in data set [7] stood at 0.09%. Also, the “Liver Microsome Stability-% Left … (%) Monkey” value in data set [8] came to 0.03%.

In the case of `COc1cccc(S(=O)(=O)N2CCCN(CC3CCCCC3)CCCN(S(=O)(=O)N3CCCCC3)CC3(CC3)C2)c1` [A32, 9-(cyclohexylmethyl)-5-(3-methoxybenzenesulfonyl)-13-(piperidine-1-sulfonyl)-5,9,13-triazaspiro[2.11]tetradecane], the IC50 in data set [1] and in data set [2] was over 25 µM in each case. Further, the 50% effective concentration (EC50) in data set [3] and in data set [4] was over 25 µM in each case. In data set [5], the “Liver Microsome Stability-% Left … (%) Human” value is recorded as 0.06%. For the same molecule, in data set [6], the “Liver Microsome Stability-% Left … (%) Mouse” value was found to be 0.51%. Further, the “Liver Microsome Stability-% Left … (%) Rat” value in data set [7] came to 0.27%. The “Liver Microsome Stability-% Left … (%) Monkey” value in data set [8] is 0.09%.

`COc1ccccc1S(=O)(=O)N1CCCN(CC2CCCCC2)CCCN(S(=O)(=O)N2CCCCC2)CC2(CC2)C1` [A33, 9-(cyclohexylmethyl)-5-(2-methoxybenzenesulfonyl)-13-(piperidine-1-sulfonyl)-5,9,13-triazaspiro[2.11]tetradecane]: the IC50 in data set [1] and in data set [2] was over 25 µM in each case. Besides, the EC50 in data set [3] and in data set [4] was over 25 µM throughout. In addition, the “Liver Microsome Stability-% Left … (%) Human” value in data set [5] was 0.05%. For the same molecule, in data set [6], the “Liver Microsome Stability-% Left … (%) Mouse” value came to 0.08%. Moreover, the “Liver Microsome Stability-% Left … (%) Rat” value in data set [7] came to 0.13%. In addition, in data set [8], the “Liver Microsome Stability-% Left … (%) Monkey” value is reported as 0.07%.

As for `O=S(=O)(c1ccccc1)N1CCCN(CC2CCCCC2)CCCN(S(=O)(=O)N2CCCCC2)CC2(CC2)C1` [A34, 5-(benzenesulfonyl)-9-(cyclohexylmethyl)-13-(piperidine-1-sulfonyl)-5,9,13-triazaspiro[2.11]tetradecane], the IC50 in data set [1] and in data set [2] was over 25 µM in each case. Also, the half-maximal effective concentration (EC50) in data set [3] and in data set [4] was over 25 µM in each case. For the same molecule, the “Liver Microsome Stability-% Left … (%) Human” value in data set [5] is listed as 0.03%. Moreover, the “Liver Microsome Stability-% Left … (%) Mouse” value in data set [6] is given as 0.24%. Besides, in data set [7], the “Liver Microsome Stability-% Left … (%) Rat” value is given as 0.12%. The “Liver Microsome Stability-% Left … (%) Monkey” value in data set [8] amounted to 0.09%.

Regarding `C=C1CN(S(=O)(=O)c2ccc(N(C)C)cc2)CCCN(CC2CCCCC2)CCCN(S(=O)(=O)N2CCC(Oc3ccccc3)CC2)C1` [A37, 4-{[9-(cyclohexylmethyl)-3-methylidene-5-[(4-phenoxypiperidin-1-yl)sulfonyl]-1,5,9-triazacyclododecan-1-yl]sulfonyl}-N,N-dimethylaniline], the IC50 in data set [1] is 0.202 µM; in data set [2], over 25 µM. Also, the EC50 in data set [3] and in data set [4] was over 25 µM throughout. In addition, the “Liver Microsome Stability-% Left … (%) Human” value in data set [5] came out at 8.26%. Moreover, the “Liver Microsome Stability-% Left … (%) Mouse” value in data set [6] is 6.03%. The “Liver Microsome Stability-% Left … (%) Rat” value in data set [7] turned out to be 13.5%. The “Liver Microsome Stability-% Left … (%) Monkey” value in data set [8] amounted to 5.69%.

With `C=C1CN(S(=O)(=O)c2ccc(N(C)C)cc2)CCCN(CC2CCCCC2)CCCN(S(=O)(=O)N2CCCC(c3ccccc3)C2)C1` (stereo not drawn) [A38, 4-{[9-(cyclohexylmethyl)-3-methylidene-5-[(3-phenylpiperidin-1-yl)sulfonyl]-1,5,9-triazacyclododecan-1-yl]sulfonyl}-N,N-dimethylaniline], the IC50 worked out at 0.0751 µM in data set [1] and 5.49 µM in data set [2]. Further, the EC50 in data set [3] is over 11.8 µM; in data set [4] it was over 25 µM. For the same molecule, the “Liver Microsome Stability-% Left … (%) Human” value in data set [5] turned out to be 11.4%. In addition, the “Liver Microsome Stability-% Left … (%) Mouse” value in data set [6] is recorded as 12.6%. Also, the “Liver Microsome Stability-% Left … (%) Rat” value in data set [7] amounted to 24.2%. Besides, the “Liver Microsome Stability-% Left … (%) Monkey” value in data set [8] is recorded as 9.04%.
